Values quoted from earlier work in patent US6635277B2, “Composition for pulsatile delivery of diltiazem and process of manufacture” (Wockhardt Limited, priority 2000, dated 2003).

Details: in 0.1N HCl

## CCCCCCCCCCCCOS(=O)(=O)[O-].[Na+] [sodium lauryl sulfate]
  Fraction ionized: 10%
